In brackets after ≈: the same amount, converted by molar mass. Where two headings read alike, the source gives them in different places.
Experiments:
cabbage looper = experiment: Field trial, cabbage looper on sprouting broccoli; format: in vivo
Method: A83543A was evaluated in field trials.

guinea pigs = experiment: Toxicity to the host animal, guinea pig systemic test; format: in vivo; design: key: N: none
Method: Adult guinea pigs are used in this test system. The compounds to be tested are dissolved in aqueous polyvinyl pyrrolidone or in polyethylene glycol 200, and an appropriate amount of the solution is administered either orally or by intraperitoneal injection.
Blood is drawn from the guinea pigs at 30 minutes except as noted, and the samples of blood are centrifuged. Dental wicks are saturated with the blood serum, and then exposed in Petri dishes to adult stable flies; blow fly larvae are exposed in test tubes. After 24 and 48 hours, the insects are examined, and the number of dead are counted. The results of the tests are recorded as the percent of the insects which are killed.

[1] = tested on: first instar yellow fever mosquito larvae; experiment: In vitro mosquito larvicide test, first instar; settings: Aedes aegypti, 24 h, lowest concentration with 100% inhibition after 24 hr, microtiter plates, read-out: Minimal Inhibitory Concentration
Excerpt: The A83543 components were active against yellow fever mosquito (Aedes aegypti) larvae in standard in vitro mosquito larvicide tests.

adult BW (boll weevil) = experiment: Topical test against adult BW; format: in vivo; settings: Anthonomus grandis, 72 h, 3 days
Method: (§1) Each test compound was formulated by dissolving the compound in an acetone/alcohol (1:1) mixture containing 23 g of "Toximul R" (sulfonate/nonionic emulsifier blend) and 13 g of "Toximul S" (sulfonate/nonionic emulsifier blend) per liter. These mixtures were then diluted with water to give the indicated concentrations.
(§2) Additional insects were evaluated using similar formulations and evaluation procedures, with the exceptions noted.
(§3) After standard exposure periods, percent mortality was evaluated. The following abbreviations are used:
^a One replicate; observed 3 days after treatment
^b Formulated A83543A (1 mL) poured over adult insects in a Petri

black blow fly larvae = experiment: In vitro efficacy against black blow fly larvae; settings: Phormia regina
Excerpt: (§4) Tables XIX-XXI summarize in vitro studies with A83543A and A83543D.

[2] = tested on: SAW (Southern armyworm) larvae; experiment: Topical test against SAW larvae; format: in vivo; settings: Spodoptera eridania
Method: as §1, §2, §3
^a Days between treatment and observation
^b Mean of replicates tested
^f Treated topically with 1 mL of formulated A83543A

adult stable fly = experiment: In vitro efficacy against adult stable fly; settings: Stomoxys calcitrans
Excerpt: as §4

SAW (Southern armyworm) = experiment: Greenhouse test against SAW; format: in vivo; settings: Spodoptera eridania, bushbean
[3] = tested on: neonate CBW (cotton bollworm) larvae; experiment: Topical test against neonate CBW larvae; format: in vivo, Heliothis zea; settings: 24 h, 1 day
Method: as §1, §2, §3
^b Mean of two replicates tested
^c Treated with 1 mL of formulated A83543A

blow fly larvae (LBF) = experiment: In vitro efficacy, exposure of LBF to chemically added serum samples
Excerpt: ^1 Percent insect mortality following 24 to 48 hrs. in vitro exposure
to chemically added serum samples

CA (cotton aphid) = experiment: Greenhouse test against CA; format: in vivo; settings: Aphis gossypii, squash
Method: as §1
Two-spotted spider mites (Tetranychus urticae Koch) and cotton or melon aphids (Aphis gossypii Glover) were introduced on squash cotyledons and allowed to establish on both leaf surfaces. Other plants in the same treatment pot were left uninfested. The leaves were then sprayed with 5 mL of test solution using a DeVilbiss atomizing sprayer at 10 psi. Both surfaces of the leaves were covered until runoff and then allowed to dry for one hour. Two uninfested leaves were then excised and placed into a Petri dish containing Southern armyworm (Spodoptera eridania Cramer).
(§5) After standard exposure periods, percent mortality was evaluated.

CLH (corn leafhopper) = experiment: Greenhouse test against CLH; format: in vivo, Dalbulus maidis
Method: as §1, §2, §5

CC[C@H]1CCC[C@H](O[C@H]2CC[C@H](N(C)C)[C@@H](C)O2)[C@@H](C)C(=O)C2=C[C@@H]3[C@@H](C=C[C@@H]4C[C@@H](O[C@@H]5O[C@@H](C)[C@H](OC)[C@@H](OC)[C@H]5OC)C[C@@H]34)[C@@H]2CC(=O)O1 [A83543A]
activity in field trials (cabbage looper): showed activity | Tox (guinea pigs; 10 mg/kg IP): N | Tox (guinea pigs; 20 mg/kg IP): N | Tox (guinea pigs; 30 mg/kg IP): N | Tox (guinea pigs; 50 mg/kg IP): N | Tox (guinea pigs; 50 mg/kg OR (oral)): N | MIC [1]: 0.016 µg/mL (≈ 0.0219 µM) | MIC ([1]; second of two lots): 0.031 µg/mL (≈ 0.0424 µM) | inhibition at 1 ppm (adult BW (boll weevil); 1.00 ppm): 0% | inhibition at 5 ppm (adult BW (boll weevil); 5.00 ppm): 20% | inhibition at 10 ppm (adult BW (boll weevil); 10.00 ppm): 20% | inhibition at 50 ppm (adult BW (boll weevil); 50.00 ppm): 100% | inhibition at 100 ppm (adult BW (boll weevil); 100.0 ppm): 100% | mortality at 0.25 ppm (black blow fly larvae; 0.25 ppm): 25% | mortality at 0.5 ppm (black blow fly larvae; 0.5 ppm): 60% | mortality at 1 ppm (black blow fly larvae; 1 ppm): 95% | mortality at 2 ppm (black blow fly larvae; 2 ppm): 100% | mortality at 5 ppm (black blow fly larvae; 5 ppm): 100% | mortality at 10 ppm (black blow fly larvae; 10 ppm): 100% | mortality at 25 ppm (black blow fly larvae; 25 ppm): 100% | mortality at 50 ppm (black blow fly larvae; 50 ppm): 100% | mortality at 100 ppm (black blow fly larvae; 100 ppm): 100% | inhibition at 1 ppm ([2]; 24 h, second instar, 1 day): 0% | inhibition at 5 ppm ([2]; 24 h, second instar, 1 day): 0% | inhibition at 10 ppm ([2]; 24 h, second instar, 1 day): 0% | inhibition at 50 ppm ([2]; 24 h, second instar, 1 day): 80% | inhibition at 100 ppm ([2]; 24 h, second instar, 1 day): 100% | inhibition at 10 ppm ([2]; 48 h, fifth instar, 2 days): 0% | inhibition at 50 ppm ([2]; 48 h, fifth instar, 2 days): 0% | inhibition at 1 ppm ([2]; 48 h, third instar, 2 days): 0% | inhibition at 5 ppm ([2]; 48 h, third instar, 2 days): 0% | inhibition at 10 ppm ([2]; 48 h, third instar, 2 days): 13.3% | inhibition at 50 ppm ([2]; 48 h, third instar, 2 days): 73.3% | inhibition at 1 ppm ([2]; 72 h, neonate, 3 days): 0% | inhibition at 5 ppm ([2]; 72 h, neonate, 3 days): 60% | inhibition at 10 ppm ([2]; 72 h, neonate, 3 days): 100% | inhibition at 50 ppm ([2]; 72 h, neonate, 3 days): 100% | inhibition at 100 ppm ([2]; 72 h, neonate, 3 days): 100% | mortality at 0.5 ppm (adult stable fly; 24 hour): 0% | mortality at 0.5 ppm (adult stable fly; 48 hour): 10% | mortality at 1 ppm (adult stable fly; 24 hour): 10% | mortality at 1 ppm (adult stable fly; 48 hour): 60% | mortality at 2 ppm (adult stable fly; 24 hour): 70% | mortality at 2 ppm (adult stable fly; 48 hour): 90% | mortality at 5 ppm (adult stable fly; 24 hour): 80% | mortality at 5 ppm (adult stable fly; 48 hour): 100% | mortality at 10 ppm (adult stable fly; 24 hour): 100% | mortality at 10 ppm (adult stable fly; 48 hour): 90% | mortality at 25 ppm (adult stable fly; 24 hour): 100% | mortality at 25 ppm (adult stable fly; 48 hour): 100% | mortality at 50 ppm (adult stable fly; 24 hour): 100% | mortality at 50 ppm (adult stable fly; 48 hour): 100% | mortality at 100 ppm (adult stable fly; 24 hour): 100% | mortality at 100 ppm (adult stable fly; 48 hour): 100% | inhibition at 12.5 ppm (SAW (Southern armyworm); 12.5 ppm): 0% | inhibition at 25 ppm (SAW (Southern armyworm); 25 ppm): 40% | inhibition at 50 ppm (SAW (Southern armyworm); 50 ppm): 80% | inhibition at 100 ppm (SAW (Southern armyworm); 100 ppm): 100% | inhibition at 0.5 ppm ([3]; 0.50 ppm, second series): 10% | inhibition at 1 ppm ([3]; first series, mean of two replicates): 20% | inhibition at 1 ppm ([3]; second series): 40% | inhibition at 5 ppm ([3]; first series): 100% | inhibition at 5 ppm ([3]; second series): 80% | inhibition at 10 ppm ([3]; first series): 100% | inhibition at 10 ppm ([3]; second series): 100% | inhibition at 50 ppm ([3]; first series): 100% | inhibition at 50 ppm ([3]; second series): 100% | inhibition at 100 ppm ([3]; first series): 100% | inhibition at 100 ppm ([3]; second series): 70% | Percent insect mortality (blow fly larvae (LBF); 0.312 ppm, 24 hr): 25% | Percent insect mortality (blow fly larvae (LBF); 0.312 ppm, 48 hr): 50% | Percent insect mortality (blow fly larvae (LBF); 0.625 ppm, 24 hr): 60% | Percent insect mortality (blow fly larvae (LBF); 0.625 ppm, 48 hr): 90% | Percent insect mortality (blow fly larvae (LBF); 1.25 ppm, 24 hr): 100% | Percent insect mortality (blow fly larvae (LBF); 1.25 ppm, 48 hr): 100% | Percent insect mortality (blow fly larvae (LBF); 2.5 ppm, 24 hr): 100% | Percent insect mortality (blow fly larvae (LBF); 2.5 ppm, 48 hr): 100% | Percent insect mortality (blow fly larvae (LBF); 5 ppm, 24 hr): 100% | Percent insect mortality (blow fly larvae (LBF); 5 ppm, 48 hr): 100% | Percent insect mortality (blow fly larvae (LBF); 10 ppm, 24 hr): 100% | Percent insect mortality (blow fly larvae (LBF); 10 ppm, 48 hr): 100% | inhibition at 25 ppm (CA (cotton aphid); 25 ppm, second series): 0% | inhibition at 50 ppm (CA (cotton aphid); first series): 0% | inhibition at 50 ppm (CA (cotton aphid); second series): 40% | inhibition at 100 ppm (CA (cotton aphid); first series): 0% | inhibition at 100 ppm (CA (cotton aphid); second series): 80% | inhibition at 50 ppm (CLH (corn leafhopper); 50 ppm): 0% | inhibition at 100 ppm (CLH (corn leafhopper); 100 ppm): 30% | inhibition at 200 ppm (CLH (corn leafhopper); 200 ppm): 90%
